# Assay results from article PMC7360687, “The Regulator PltZ Regulates a Putative ABC Transporter System PltIJKNOP of Pseudomonas aeruginosa ATCC 27853 in Response to the Antimicrobial 2,4-Diacetylphloroglucinol” (Frontiers in Microbiology, 2020).
# pKd: −log10 of the molar value.
# Target: T1, PltZ
# T1 construct: full gene cloned in pET-28b-derived vector, E. coli BL21 (DE3), Ni-NTA purified (His tag implied)
# Assay: isothermal titration calorimetry
# Parameters: species or system Pseudomonas aeruginosa
# Conditions: 25 °C; 20 mM Tris pH 8.0, 100 mM NaCl; independent binding model; read-out: binding constant
compound,measurement,value
"CC(=O)c1c(O)cc(O)c(C(C)=O)c1O [2,4-diacetylphloroglucinol]",pKd,~6.72
